What was measured:
[1] = Cerebral blood flow in the internal carotid artery system under ACVA model by ischemic and hemorrhagic types; type: in vivo; conditions: rats, intravenous, doses of 3, 30, 50 and 100 mg/kg
[2] = test system: NMDA-receptor-ionofor complex of hippocampal pyramidal neurons; assay: Aspartate-activated currents in individual pyramidal hippocampal neurons; type: cell-based, white Wistar WAG\GSto rats; conditions: individual pyramidal hippocampal neurons of 15-day aged rats
neurospecific enolase = assay: Experimental treatment of rats with ischemic ACVA: neuronal degradation marker activity; type: in vivo; conditions: 10 mg/kg once a day for 96 hours of ischemia
Source text: This evidences about the appropriateness of the use of the pharmaceutical compositions for parenteral use comprising the active substance 1-adamantylethyloxy-3-morpholino-2-propanol or pharmaceutically acceptable salts thereof for treatment and prevention of ischemic brain lesions after thrombolysis, stenting, balloon angioplasty, atheroctomy and removal of aneurysms in the internal carotid and vertebral arteries system.

[3] = Experimental treatment of rats with ischemic ACVA: endothelial dysfunction and nitrosating stress; type: in vivo; conditions: 20 mg/kg once a day for 96 hours of ischemia
Source text: This provides the basis of its use for treatment and prevention of ischemic brain lesions after thrombolysis, stenting, balloon angioplasty, atheroctomy and removal of aneurysms in the internal carotid and vertebral arteries system.

Which results are given for `OC(COCCC12CC3CC(CC(C3)C1)C2)CN1CCOCC1` (stereo not drawn) [1-adamantylethyloxy-3-morpholino-2-propanol]?
cerebral blood flow in the internal carotid artery system [1]: stimulates the cerebral blood flow; NMDA-receptors blocking/unblocking [2]: very fast; modulation of aspartate-activated currents (action on NMDA-receptor-ionofor complex) [2]: exhibits properties of activator NMDA-receptor-ionofor complex; neuronal degradation marker activity (neurospecific enolase) (neurospecific enolase): promoted the reduction; endothelial dysfunction manifestations [3]: promoted the decrease; nitrosating stress manifestations [3]: promoted the decrease

— patent US9333207B2, “Pharmaceutical composition of 1-adamantylethyloxy-3-morpholino-2-propanol or pharmaceutically acceptable salts thereof for the treatment of cerebrovascular disease and neurodegenerative diseases of the central nervous system” (priority 2012, dated 2016)
